In data set [1] the test system is rat ‘resident-intruder’ model of agitation or aggression. The data set can be described thus: Rat resident-intruder model of agitation or aggression. The conditions noted are these: for sublingual vs intravenous route: duration of the behavioral indices of aggression and agitation: doses of 1 and 1.5 μg/kg, student t-test. In kind it is in vivo. An excerpt: The resident-intruder model is an established preclinical model of aggression and agitation, and allows spontaneous and natural expression of both offensive aggression/agitation and defensive behavior in laboratory rodents in a semi natural laboratory setting.
Animals: 12-13 week old male Wistar rats weighing 380-400 g were used as resident males. 7-8 weeks old male rats weighing 280-300 g were used as the “intruder”. Resident rats were housed with female rats for 8 days to establish territoriality. The intruder rats were housed in groups of 3 with other male rats of similar age/body weight. All animals were maintained in a controlled environment with 22±3° C. temperature, 50±20% humidity, a light/dark cycle of 12 hours each and 15-20 fresh air changes per hour and had access to food and water ad-libitum. All animal experiments were conducted in accordance with the guidelines of the Committee for the Purpose of Control and Supervision of Experiments on Animals (CPCSEA), Government of India the Association for Assessment and Accreditation of Laboratory Animal Care international (AAALAC).
Dilutions were prepared fresh every day prior to dosing using 0.9% normal saline from the formulation 4 for the entire study.
Experimental Procedure: Following acclimatization for a period of 3-5 days, each resident male rat was housed with a female rat for 8 days. On day 8, basal aggression in the resident males was tested by exposing them to an “intruder rat” for 10 minutes. […] These animals were then randomized using body weight stratification method. […] Animals were housed with the female rat for an additional day. On day 9, the resident animal was paired with intruder animal of an appropriate bodyweight such that the body weight of the resident was always higher than the intruder. This was to facilitate dominant, aggressive behavior in the resident animals. After randomization, animals were assigned a permanent number. Cages were identified by cage cards indicating the study number, study code, group number, sex, dose, cage number and animal number details.
For sublingual dosing, the rats were held in one hand and using a blunt spatula the tongue was moved to one side of the mouth. […] Diazepam was used as a reference compound and was dosed intraperitoneally. Vehicle controls were treated with 0.9% saline administered sublingually or intravenously.
The behavior of the resident rat was recorded using an overhead video camera for 15 minutes and offline behavioral analysis was done using the Noldus Ethovision XT software. To distinguish the resident rat from the intruder rat in the video recording, the intruder rat was marked with non-toxic paint.
Statistical Analysis: Statistical analysis was performed using validated statistical software (GraphPad Prism 6). Data is represented as Mean±SEM. One-way ANOVA (analysis of variance) followed by “Dunnett's Multiple Comparison Test” at 95% confidence interval was applied for comparison of the relevant groups. p<0.05 was considered significant.

The conditions of data set [2]: rat, in vivo. The procedure: Objective: To estimate Dexmedetomidine levels in rat plasma samples obtained after dosing animals via intravenous and sublingual routes at doses of 0.5, 1, 1.5 and 3 μg/kg.
Blood was collected under mild isoflurane anesthesia from the retro-orbital plexus at 0, 5, 15, 30, 60 and 120 minutes post dosing. Plasma was separated and stored at −80° C. until Dexmedetomidine concentration was analyzed.
Analytical Methods: Samples were analysed by using Agilent 1290 Infinity II HPLC system coupled to AB Sciex Triple Quad instrument (API-5000). Chromatographic separation was done using Agilent Zorbax Eclipse plus C18 column (50*2.1 mm, 1.8 μm) in gradient mode. The mobile phase consisted of 10 mM Ammonium Formate with pH 3.5 (Mobile phase A) and 100% Acetonitrile (Mobile phase B). The column temperature was 40° C. and flow rate was 0.35 mL/min. The MS instrument was operated in the positive mode (ESI+). For analysis, 2 μL of sample was injected into the LC-MS/MS instrument. Auto sampler temperature was 7° C.
WCX SPE 96 well plate was used for sample preparation. 50 μl of plasma sample was used for extraction. Along with study samples, one set of linearity and two sets of quality controls (QC) were also processed.
Sample pretreatment: To 50 μl of plasma, 10 μl of tolbutamide working solution was added (Tolbutamide 250 ng/ml). After mixing, […], of buffer solution (10 mM Ammonium Formate pH 3.5) was added. Contents were vortex mixed and loaded to preconditioned SPE plate.
After placing the cartridges in the negative pressure SPE unit, they were conditioned by passing 200 μl of 100% methanol followed by 200 μl of water. The pretreated plasma samples were then loaded to the pre-conditioned cartridges.
After loading pretreated plasma samples, cartridges were washed with 100 μl of 0.1% ammonia solution. Finally, bound analyte was eluted with 50 μl of 0.1% formic acid in acetonitrile. This step was repeated twice for complete elution. Final eluent volume was 100 μL. To 100 μL of eluent, 50 μL of 10 mM ammonium formate (pH 3.5) was added samples were vortex mixed and transferred to a 96-well HPLC sample plate (Agilent) and submitted for LC-MS/MS analysis. For LC-MS/MS analysis, 2 μL of sample was injected. Calibration standards and QCs were processed the same way as done for study samples.
The calibration curve was fitted by linear regression. The concentrations in the QC and test samples (pg/mL) were obtained from the Analyst software based on the calibration curve. […] 2) The correlation coefficient (r) of the calibration curve must be greater than or equal to 0.99. 3) At least two-thirds (4 out of 6) QC samples must be within ±20% relative error (accuracy)

“Also recorded” adds a separate entry of the source. Where a name gives a salt, the structure may show the parent alone. Read-outs that look alike come from different tables or passages of the source.

Consider `Cc1cccc([C@H](C)c2cnc[nH]2)c1C` [Dexmedetomidine hydrochloride, (S)-4-[1-(2,3-Dimethylphenyl)ethyl]-3H-imidazole], for which the “doses that effectively reduced the behavioral indices of aggression and agitation without majorly impacting the neutral behaviors” value in data set [1] (administered sublingually or intravenously, doses used 0.5-3 μg/kg) lay within 1 to 1.5 µg/kg. Moreover, in data set [1] (conclusion, rat resident intruder model), the “various indices of agitation and aggression” value is “effectively reduces various indices of agitation and aggression”. Besides, the results for the “sublingual vs intravenous route: duration of the behavioral indices of aggression and agitation” value in data set [1] and in data set [1] (listed as dexmedetomidine hydrochloride) were “correlates with intravenously administered Dexmedetomidine hydrochloride” and “No significant differences (i.e. similar effect via sublingual”, respectively. The “latency to attack the intruder rat, significance vs vehicle controls” value in data set [1] (intravenous, 3 μg/kg, FIG. 2B) is on record as “significant compared to vehicle controls”. In data set [1] (intravenous, 3 μg/kg, FIG. 3F), the “neutral behavior: immobile/quiet time” value is “significantly increased the immobile/quiet time”. Besides, the “neutral behaviors: grooming and exploration compared to vehicle controls” value in data set [1] (intravenous, 0.5-3 μg/kg, except at a dose of 3 μg/kg) is “did not significantly affect grooming and exploration”; in data set [1] (sublingual, 0.5-3 μg/kg, except exploration at 1.5 and 3 μg/kg, FIGS. 3A and 3B), “No significant changes”. The “indices of aggressive and agitated behaviors” value in data set [1] (intravenous, 0.5-3 μg/kg, FIG. 1C, 1D) is “reduced all the indices of aggressive and agitated behaviors”. The “anogenital sniffing, biting and attacking compared to vehicle controls” value in data set [1] (intravenous, doses above 0.5 μg/kg, FIG. 1C, 1D) is given as “significant reduction”. Also, the “latency to attack the intruder rat compared to the vehicle control group” value in data set [1] (prior treatment, dose related manner, route not stated) is “significant increase in the latency to attack the intruder rat”. Also, the “neutral behavior: exploration compared to vehicle controls” value in data set [1] (sublingual, 1.5 μg/kg & 3 μg/kg, FIGS. 3A and 3B) was “reduction in exploration”. In data set [1] (sublingual, 0.5-3 μg/kg, 15 minutes prior to testing, FIG. 1A, 1B), the “frequency and duration of aggressive and agitated behaviors (anogenital sniffing, chasing, biting, attacking)” value was “reduced the frequency and duration of these behaviors in a dose related manner; also recorded: dose related reduction”. Also, the “latency to attack the intruder rat” value in data set [1] (sublingual, 0.5-3 μg/kg, dose related, FIG. 2A) is “increase in the latency to attack the intruder rat”. For the same compound, the “chasing and attacking compared to vehicle control group” value in data set [1] (sublingual, 0.5-3 μg/kg, FIG. 1A, 1B) is “Significant reduction”. Besides, in data set [1] (sublingual, 0.5-3 μg/kg, FIG. 3C), the “neutral behavior: immobile/quiet time compared to vehicle controls” value is recorded as “no significant effect”. In data set [1] (sublingually administered), the “neutral behavior of animals” value is reported as “No changes were observed”. The “Plasma concentrations between 15 to 30 min” value in data set [2] is given as 43±13.5 to 90±12.1. Also, the “effect of dose on plasma concentrations” value in data set [2] is “dose-related effect on plasma concentrations”; in data set [2] (iv) it was “dose-dependent effect on plasma concentrations”. Further, the “plasma concentrations between 15 to 30 min” value in data set [2] was 27±7.1-114±1.7.

As to `CN1C(=O)CN=C(c2ccccc2)c2cc(Cl)ccc21` [Diazepam], in data set [1] (3 mg/kg, i.p., FIG. 1A-1D), the “indices of aggressive and agitated behaviors” value is “significant reduction in all the indices of aggressive and agitated behaviors”. In data set [1] (3 mg/kg, i.p., FIGS. 2A and 2B), the “attacking behavior / latency to attack” value was “complete lack of attacking behavior”. For the same compound, the “frequency and duration of neutral behaviors” value in data set [1] (3 mg/kg, ip) is “significantly reduced the frequency and duration of all neutral behaviors”.

(Values after patent US11931340B2, “Use of sublingual dexmedetomidine for the treatment of agitation” (BioXcel Therapeutics, Inc., priority 2016, dated 2024).)
